Here are results for 33 compounds from ChEMBL document CHEMBL1150308, “Cytotoxic constituents from Brazilian red propolis and their structure-activity relationship” (Bioorg Med Chem, 2008).

Common to all, as to type: functional, cell-based
The nature of assay [1]: Cytotoxicity against mouse colon 26-L5 cells after 72 hrs by MTT assay.
The test system of another assay is HeLa. The experiment in a line: Cytotoxicity against human HeLa cells after 72 hrs by MTT assay.
The test system of a further assay is HT-1080. Kind of assay: Cytotoxicity against human HT1080 cells after 72 hrs by MTT assay. The following applies: HT-1080, 72 h.
The nature of assay [2]: Cytotoxicity against mouse LLC cells after 72 hrs by MTT assay. To be noted: Lewis lung carcinoma.
Assay [3] is described as follows: Cytotoxicity against mouse B16-BL6 cells after 72 hrs by MTT assay. To be noted: B16-BL6, 72 h.
The next assay deals with A549. Kind of assay: Cytotoxicity against human A549 cells after 72 hrs by MTT assay. To be noted: A549, 72 h.

For the compound `O=c1c(-c2ccc(O)cc2)coc2cc(O)ccc12` [DAIDZEIN], the half-inhibitory concentration (IC50) in assay [1] is 88.1 µM; with HeLa it was over 100 µM; in the assay with HT-1080 it was over 100 µM; in assay [2] it was over 100 µM; in assay [3] it was over 100 µM; with A549, over 100 µM.

As for `COc1ccc(-c2coc3cc(O)ccc3c2=O)cc1O` [CALYCOSIN], the half-inhibitory concentration (IC50) in assay [1] was 98 µM; in the assay on HeLa it was over 100 µM; in the assay on HT-1080, over 100 µM; in assay [2] it was over 100 µM; in assay [3] it was over 100 µM; with A549, over 100 µM.

As for `COc1cc(O)ccc1C(=O)/C=C/c1ccc(O)cc1`, the IC50 in assay [1] is 12.3 µM; with HeLa it was 67.9 µM; with HT-1080, 51.2 µM; in assay [2] it was 69.1 µM; in assay [3], 56.3 µM; in the assay with A549, 62.1 µM.

With `O=c1[nH]cc(F)c(=O)[nH]1` [FLUOROURACIL], the 50% inhibitory concentration (IC50) in assay [1] is 0.46 µM; with HeLa it was 0.77 µM; in the assay with HT-1080 it was 9.45 µM; in assay [2], 2.59 µM; in assay [3], 5.78 µM; in the assay on A549, 9.19 µM.

In the case of `COc1cc2c(cc1O)O[C@H](c1ccccc1)CC2=O`, the concentration for half-maximal inhibition (IC50) in assay [1] turned out to be 5.9 µM; with HeLa, 5.6 µM; with HT-1080, 7.9 µM; in assay [2], 9.3 µM; in assay [3], 6.7 µM; in the assay on A549 it was 8.6 µM.

Take `COc1ccc([C@H]2COc3cc(O)ccc3C2=O)c(OC)c1O`: the IC50 (in assay [1]; in the assay on HeLa; in the assay with HT-1080; in assay [2]; in assay [3]; in the assay with A549) was over 100 µM in each case.

For `COc1cccc2c1C(=O)c1c(O)c3c(c(O)c1C2=O)C[C@@](O)(C(=O)CO)C[C@@H]3O[C@H]1C[C@H](N)[C@H](O)[C@H](C)O1` [DOXORUBICIN], the concentration for half-maximal inhibition (IC50) in assay [1] came out at 0.33 µM; with HeLa it was 0.68 µM; in the assay with HT-1080, 9.32 µM; in assay [2] it was 8.04 µM; in assay [3], 8.05 µM; in the assay on A549, 7.88 µM.

For the compound `COc1ccc(-c2coc3cc(O)ccc3c2=O)cc1` [FORMONONETIN], the half-maximal inhibitory concentration (IC50) is 83.6 µM in assay [1]; over 100 µM in the assay on HeLa; over 100 µM in the assay on HT-1080; over 100 µM in assay [2]; over 100 µM in assay [3]; over 100 µM in the assay on A549.

As for `COc1ccc2c(c1)O[C@H]1c3ccc(O)c(O)c3OC[C@@H]21`, the concentration for half-maximal inhibition (IC50) in assay [1] was 54.1 µM; with HeLa, over 100 µM; in the assay with HT-1080, over 100 µM; in assay [2], over 100 µM; in assay [3] it was over 100 µM; in the assay with A549 it was over 100 µM.

On to `O=C(/C=C/c1ccc(O)cc1)c1ccc(O)cc1O` [ISOLIQUIRITIGENIN], for which the half-maximal inhibitory concentration (IC50) in assay [1] turned out to be 21.8 µM; in the assay on HeLa, 82.6 µM; with HT-1080, 76.7 µM; in assay [2], 84 µM; in assay [3] it was 80.5 µM; with A549 it was 98.9 µM.

In the case of `COc1ccc(-c2coc3cc(O)cc(O)c3c2=O)c(O)c1`, the IC50 in assay [1] is 93.6 µM; in the assay with HeLa, over 100 µM; with HT-1080, over 100 µM; in assay [2], over 100 µM; in assay [3], over 100 µM; in the assay on A549, over 100 µM.

As for `O=C(/C=C/c1ccccc1)c1ccc(O)cc1O` [2',4'-DIHYDROXYCHALCONE], the IC50 came to 7.4 µM in assay [1]; 23.1 µM with HeLa; 34 µM in the assay with HT-1080; 39.5 µM in assay [2]; 44.3 µM in assay [3]; 41.6 µM with A549.

As for `C=C[C@@H](c1ccccc1)c1cc(O)c(OC)cc1OC`, the concentration for half-maximal inhibition (IC50) is 60.3 µM in assay [1]; 60.1 µM with HeLa; over 100 µM in the assay with HT-1080; over 100 µM in assay [2]; 53.8 µM in assay [3]; 73.7 µM in the assay with A549.

`COc1ccc(-c2coc3cc(O)ccc3c2=O)c(O)c1` [XENOGNOSIN B]: the IC50 in assay [1] was 49.3 µM; in the assay with HeLa, 69.8 µM; with HT-1080 it was over 100 µM; in assay [2] it was over 100 µM; in assay [3] it was 34.1 µM; in the assay on A549 it was over 100 µM.

As to `COc1cc([C@H]2OC[C@H]3[C@@H]2CO[C@@H]3c2cc(OC)c(O)c(OC)c2)cc(OC)c1O` [SYRINGARESINOL], the IC50 (in assay [1]; with HeLa; in the assay with HT-1080; in assay [2]; in assay [3]; with A549) was over 100 µM throughout.

On to `COc1cc(O)ccc1[C@H]1COc2cc(O)ccc2C1`, for which the half-inhibitory concentration (IC50) in assay [1] was 49.8 µM; in the assay on HeLa it was 77.1 µM; in the assay with HT-1080, 75.3 µM; in assay [2], over 100 µM; in assay [3] it was 33.6 µM; with A549 it was over 100 µM.

Take `COc1ccc([C@H]2COc3cc(OC)ccc3C2)c(O)c1`: the IC50 in assay [1] is 29.8 µM; in the assay on HeLa, 44.3 µM; with HT-1080 it was 50.1 µM; in assay [2] it was 24 µM; in assay [3], 24.1 µM; in the assay on A549 it was 46 µM.

As for `O=C1C[C@@H](c2ccc(O)cc2)Oc2cc(O)cc(O)c21` [NARINGENIN], the IC50 (in assay [1]; in the assay with HeLa; in the assay with HT-1080; in assay [2]; in assay [3]; in the assay with A549) was over 100 µM in each case.

Take `CCO[C@@]12COc3cc(O)ccc3[C@@H]1Oc1cc(OC)ccc12`: the IC50 (in assay [1]; with HeLa; with HT-1080; in assay [2]; in assay [3]; with A549) was over 100 µM throughout.

`COc1cc2c(cc1O)O[C@H](c1ccccc1)[C@@H](O)C2=O`: the 50% inhibitory concentration (IC50) (in assay [1]; with HeLa; in the assay on HT-1080; in assay [2]; in assay [3]; in the assay on A549) was over 100 µM in each case.

On to `COc1ccc([C@H]2COc3cc(O)ccc3C2)c(O)c1`, for which the IC50 in assay [1] is 67 µM; in the assay on HeLa, 72.6 µM; with HT-1080, over 100 µM; in assay [2], 92.3 µM; in assay [3], 57.4 µM; in the assay on A549 it was over 100 µM.

Consider `COc1ccc2c(c1)O[C@@H]1c3ccc(O)cc3OC[C@H]21`, for which the half-inhibitory concentration (IC50) in assay [1] amounted to 11.3 µM; with HeLa, 23.4 µM; in the assay on HT-1080, 28.4 µM; in assay [2] it was 17.2 µM; in assay [3], 42.4 µM; in the assay with A549, 39.5 µM.

As for `O=C(c1ccc(O)cc1O)[C@@H](O)Cc1ccc(O)cc1`, the IC50 (in assay [1]; with HeLa; in the assay with HT-1080; in assay [2]; in assay [3]; in the assay with A549) was over 100 µM each time.

`O=C1c2ccc(O)cc2OC1(O)Cc1ccc(O)cc1` (stereo not drawn): the IC50 is 25.9 µM in assay [1]; over 100 µM with HeLa; over 100 µM in the assay on HT-1080; over 100 µM in assay [2]; over 100 µM in assay [3]; over 100 µM in the assay on A549.

As to `O=C1c2ccc(O)cc2O[C@H](c2ccc(O)cc2)[C@H]1O` [GARBANZOL], the IC50 (in assay [1]; in the assay with HeLa; in the assay with HT-1080; in assay [2]; in assay [3]; in the assay with A549) was over 100 µM in each case.

Regarding `O=C1C[C@@H](c2ccc(O)cc2)Oc2cc(O)ccc21` [LIQUIRTIGENIN], the IC50 in assay [1] is 56.6 µM; with HeLa it was over 100 µM; in the assay with HT-1080, over 100 µM; in assay [2] it was over 100 µM; in assay [3], 97.7 µM; in the assay with A549, over 100 µM.

For the compound `COc1cc2c(cc1OC)[C@@H]1COc3cc(O)ccc3[C@@H]1O2` [SECUNDIFLOROL I], the IC50 was 44.5 µM in assay [1]; 84.3 µM with HeLa; over 100 µM with HT-1080; over 100 µM in assay [2]; 64.9 µM in assay [3]; over 100 µM in the assay with A549.

Take `COc1ccc(-c2coc3cc(O)cc(O)c3c2=O)cc1` [BIOCHANIN]: the concentration for half-maximal inhibition (IC50) in assay [1] was 98 µM; in the assay with HeLa, over 100 µM; in the assay with HT-1080 it was over 100 µM; in assay [2] it was over 100 µM; in assay [3], over 100 µM; in the assay with A549 it was over 100 µM.

As to `COc1ccc2c(c1O)O[C@@H]1c3ccc(O)cc3OC[C@H]21`, the IC50 is 68.1 µM in assay [1]; 61.2 µM with HeLa; over 100 µM in the assay on HT-1080; 57.2 µM in assay [2]; 47.5 µM in assay [3]; over 100 µM in the assay with A549.

Consider `COc1c(O)cc2c(c1O)C(=O)C[C@@H](c1ccccc1)O2` [DIHYDROOROXYLIN A], for which the 50% inhibitory concentration (IC50) in assay [1] is 49 µM; in the assay with HeLa it was 39.3 µM; in the assay on HT-1080, 47.6 µM; in assay [2], 82.7 µM; in assay [3] it was 72.6 µM; in the assay on A549 it was 38 µM.

Consider `COc1ccc2c(C)c(-c3ccc(O)cc3O)oc2c1`, for which the half-inhibitory concentration (IC50) in assay [1] came out at 27.8 µM; with HeLa it was 36.1 µM; in the assay on HT-1080 it was 38.7 µM; in assay [2], 34.4 µM; in assay [3], 44.8 µM; in the assay on A549 it was 42.6 µM.

`COc1ccc(-c2coc3cc(O)cc(O)c3c2=O)cc1O` [PRATENSEIN]: the IC50 (in assay [1]; in the assay with HeLa; with HT-1080; in assay [2]; in assay [3]; in the assay on A549) was over 100 µM throughout.

In the case of `COc1cc([C@@H]2OC[C@@H]3[C@H]2CO[C@H]3c2ccc(O)c(OC)c2)ccc1O` [(+)-PINORESINOL], the IC50 in assay [1] is over 100 µM; with HeLa it was 92.5 µM; in the assay with HT-1080 it was over 100 µM; in assay [2] it was over 100 µM; in assay [3] it was over 100 µM; with A549, over 100 µM.
